Measurements from patent US10030020B2, “Spirocycle compounds and methods of making and using same” (Abide Therapeutics, Inc., priority 2016, dated 2018).
pIC50: −log10 of the molar value. Like-named read-outs stand apart in the source and are kept apart here.

Tests used:
MAGL [1] = target: T1, MAGL (Mus musculus (Mouse), UniProt O35678); assay: In vitro competitive activity-based protein profiling (mouse brain membrane fraction or cell lysates), MAGL band; type: biochemical; details: for inhibition at 1 µM: read-out: MAGL % Inh 1 μM (mouse); for pIC50: competitive ABPP
Description: In Vitro Competitive Activity-Based Protein Profiling.
Proteomes (mouse brain membrane fraction or cell lysates) (50 μL, 1.0 mg/mL total protein concentration) were preincubated with varying concentrations of inhibitors at 37° C. After 30 min, FP—Rh (1.0 μL, 50 μM in DMSO) was added and the mixture was incubated for another 30 min at 37° C. Reactions were quenched with SDS loading buffer (50 μL-4×) and run on SDS-PAGE.

ABHD6 [2] = target: T2, ABHD6 (Mus musculus (Mouse), UniProt Q8R2Y0); assay: In vitro competitive activity-based protein profiling (mouse brain membrane fraction or cell lysates), ABHD6 band; type: biochemical; details: for inhibition at 1 µM: read-out: ABHD6 % Inh 1 μM (mouse); for pIC50: competitive ABPP
Procedure, shortened: (§1)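 Mouse proteome samples (brain membrane fraction or cell lysate, 1.0 mg/mL protein) were pretreated with varying inhibitor concentrations and subsequently probed with fluorophosphonate-rhodamine, each step lasting 30 min at 37° C. Labelled proteins were separated by SDS-PAGE, and band fluorescence was imaged and quantified.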

MAGL [3] = target: T1, MAGL; assay: Mouse brain proteomes from inhibitor treated mice (oral gavage, sacrificed 4 h after administration, ABPP analysis); type: in vivo, mouse (C57Bl/6J); details: 5 mg/kg oral gavage
Procedure, shortened: (§2)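 Percent inhibition in brain tissue measured by ABPP 4 h after a single oral gavage dose (5 mg/kg) to wild-type C57Bl/6J mice; vehicle was, for example, PEG400/Ethanol/PBS at 7/2/1.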

FAAH [4] = target: T3, FAAH (Mus musculus (Mouse), UniProt O08914); assay: Mouse brain proteomes from inhibitor treated mice (oral gavage, sacrificed 4 h after administration, ABPP analysis), FAAH; type: in vivo, mouse (C57Bl/6J); details: 5 mg/kg oral gavage
Procedure, shortened: as §2

FAAH [5] = target: T3, FAAH; assay: In vitro competitive activity-based protein profiling (mouse brain membrane fraction or cell lysates), FAAH band; type: biochemical; details: for inhibition at 1 µM: read-out: FAAH % Inh 1 μM (mouse); for pIC50: competitive ABPP
Procedure, shortened: as §1

MAGL [6] = target: MAGL (Homo sapiens (Human), UniProt Q99685); assay: In vitro competitive activity-based protein profiling (human prefrontal cortex or cell membrane fractions; hMAGL expressed in HEK293T cells); type: biochemical
Procedure, shortened: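 Human prefrontal cortex or cell membrane proteomes (1.0-2.0 mg/mL), or lysates of HEK293T cells expressing hMAGL diluted into mock proteome, preincubated with inhibitor 30 min at 37° C. FP-Rh or JW912 probe then added for 30 min at room temperature. Residual labeling resolved by SDS-PAGE.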

ABHD6 [7] = target: T2, ABHD6; assay: Mouse brain proteomes from inhibitor treated mice (oral gavage, sacrificed 4 h after administration, ABPP analysis), ABHD6; type: in vivo, mouse (C57Bl/6J); details: 5 mg/kg oral gavage
Procedure, shortened: as §2

[8] = human proteome, competitive ABPP

Chain of MAGL (Homo sapiens (Human), UniProt Q99685) (Q99685 whole entry): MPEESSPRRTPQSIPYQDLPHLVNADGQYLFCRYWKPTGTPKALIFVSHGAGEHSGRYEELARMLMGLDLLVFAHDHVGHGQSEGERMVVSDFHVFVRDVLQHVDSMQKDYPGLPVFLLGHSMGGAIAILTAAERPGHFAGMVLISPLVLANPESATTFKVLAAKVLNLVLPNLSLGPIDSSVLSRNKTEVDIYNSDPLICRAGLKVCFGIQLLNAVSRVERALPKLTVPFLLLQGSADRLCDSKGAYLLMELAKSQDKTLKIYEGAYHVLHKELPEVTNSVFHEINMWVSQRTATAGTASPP
T1 sequence (O35678 whole entry): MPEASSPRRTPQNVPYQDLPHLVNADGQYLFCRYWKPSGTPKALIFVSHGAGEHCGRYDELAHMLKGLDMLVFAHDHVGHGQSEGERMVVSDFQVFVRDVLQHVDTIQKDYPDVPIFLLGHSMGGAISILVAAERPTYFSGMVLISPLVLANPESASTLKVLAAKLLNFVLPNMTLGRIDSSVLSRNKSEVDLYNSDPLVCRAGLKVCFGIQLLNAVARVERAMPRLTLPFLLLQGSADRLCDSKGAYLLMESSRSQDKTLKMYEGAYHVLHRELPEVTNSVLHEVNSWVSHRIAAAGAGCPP
T3 sequence (O08914 whole entry): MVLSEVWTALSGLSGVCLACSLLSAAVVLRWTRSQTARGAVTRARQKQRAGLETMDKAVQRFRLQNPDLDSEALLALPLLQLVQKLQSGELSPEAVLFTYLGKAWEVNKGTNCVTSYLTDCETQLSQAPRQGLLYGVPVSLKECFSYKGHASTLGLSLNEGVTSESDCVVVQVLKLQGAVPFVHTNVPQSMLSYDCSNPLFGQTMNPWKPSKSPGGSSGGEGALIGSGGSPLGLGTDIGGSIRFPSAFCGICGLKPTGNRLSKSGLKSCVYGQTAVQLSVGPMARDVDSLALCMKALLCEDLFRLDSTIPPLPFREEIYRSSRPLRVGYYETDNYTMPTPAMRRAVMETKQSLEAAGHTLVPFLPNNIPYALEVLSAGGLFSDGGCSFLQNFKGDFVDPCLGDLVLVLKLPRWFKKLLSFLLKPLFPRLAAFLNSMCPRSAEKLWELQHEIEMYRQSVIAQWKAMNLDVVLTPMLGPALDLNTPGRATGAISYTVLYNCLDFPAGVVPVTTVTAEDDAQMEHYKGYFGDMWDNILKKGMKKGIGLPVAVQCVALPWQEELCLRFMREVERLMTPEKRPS
T2 sequence (Q8R2Y0 whole entry): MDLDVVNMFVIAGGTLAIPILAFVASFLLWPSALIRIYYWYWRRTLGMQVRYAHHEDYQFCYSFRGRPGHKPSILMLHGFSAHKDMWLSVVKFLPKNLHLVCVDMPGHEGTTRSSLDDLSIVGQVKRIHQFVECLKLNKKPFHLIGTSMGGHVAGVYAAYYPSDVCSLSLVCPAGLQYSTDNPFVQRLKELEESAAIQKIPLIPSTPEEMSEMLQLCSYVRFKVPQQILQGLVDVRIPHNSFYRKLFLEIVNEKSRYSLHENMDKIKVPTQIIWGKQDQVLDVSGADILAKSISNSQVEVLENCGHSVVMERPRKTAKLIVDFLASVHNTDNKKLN

SMILES	inhibition at 1 µM (MAGL [1]; mouse proteome)	pIC50 (MAGL [1]; mouse proteome)	inhibition at 1 µM (ABHD6 [2]; mouse proteome)	pIC50 (ABHD6 [2]; mouse proteome)	MAGL % Inh 5 mg/kg (mouse) (MAGL [3])	FAAH % Inh 5 mg/kg (mouse) (FAAH [4])	inhibition at 1 µM (FAAH [5]; mouse proteome)	pIC50 (FAAH [5]; mouse proteome)	pIC50 (MAGL [6]; [8])	ABHD6 % Inh 5 mg/kg (mouse) (ABHD6 [7])	inhibition at 1 µM (MAGL [1]; mouse)	inhibition at 1 µM (ABHD6 [2]; mouse)	inhibition at 1 µM (FAAH [5]; mouse)	pIC50 (MAGL [6]; human)
CN1CCCc2ccc(CN3CCCC34CCN(C(=O)OC(C(F)(F)F)C(F)(F)F)CC4)cc21 [Example 68, 1,1,1,3,3,3-Hexafluoropropan-2-yl 1-((1-methyl-1,2,3,4-tetrahydroquinolin-7-yl)methyl)-1,8-diazaspiro[4.5]decane-8-carboxylate]	> 75%	> 7.00	< 25%	< 6.00	### (### is ≥75%)	# (# is <25%)	< 25%	< 6.00	> 7.00	# (# is <25%)				
O=C(O)C1CCN(Cc2cc(Cl)cc(CN3CCCC34CCN(C(=O)OC(C(F)(F)F)C(F)(F)F)CC4)c2)CC1 [Example 194, 1-(3-Chloro-5-((8-(((1,1,1,3,3,3-hexafluoropropan-2-yl)oxy)carbonyl)-1,8-diazaspiro[4.5]decan-1-yl)methyl)benzyl)piperidine-4-carboxylic acid]	> 75%		< 25%		## (## is equal to or greater than 25% but less than 75%)	# (# is <25%)	< 25%		> 7.00	# (# is <25%)				
O=C(O)C1CCN(c2cc(Cl)cc(CN3CCCC34CCN(C(=O)OC(C(F)(F)F)C(F)(F)F)CC4)c2)CC1 [Example 122, 1-(3-Chloro-5-((8-(((1,1,1,3,3,3-hexafluoropropan-2-yl)oxy)carbonyl)-1,8-diazaspiro[4.5]decan-1-yl)methyl)phenyl)piperidine-4-carboxylic acid]	> 75%	> 7.00	< 25%	< 6.00	### (### is ≥75%)	## (## is equal to or greater than 25% but less than 75%)	< 25%	< 6.00	> 7.00	## (## is equal to or greater than 25% but less than 75%)				
O=C(O)c1cc(CN2CCCC23CCN(C(=O)OC(C(F)(F)F)C(F)(F)F)CC3)ccc1C(F)(F)F [Example 179, 5-((8-((1,1,1,3,3,3-Hexafluoropropan-2-yloxy)carbonyl)-1,8-diazaspiro[4.5]decan-1-yl)methyl)-2-(trifluoromethyl)benzoic acid]	> 75%	6.00 to 7.00	< 25%	< 6.00	### (### is ≥75%)	## (## is equal to or greater than 25% but less than 75%)	< 25%	< 6.00	> 7.00	# (# is <25%)				
O=C(O)[C@@H]1CCCN(c2cc(C(F)(F)F)ccc2CN2CCC3(CCN(C(=O)OC(C(F)(F)F)C(F)(F)F)CC3)C2)C1 [Example 211]	> 75%		< 25%		## (## is equal to or greater than 25% but less than 75%)	# (# is <25%)	< 25%		> 7.00	# (# is <25%)				
O=C(O)C1CCN(c2cc(S(F)(F)(F)(F)F)ccc2CN2CCCC23CCN(C(=O)OC(C(F)(F)F)C(F)(F)F)CC3)CC1 [Example 240]					### (### is ≥75%)	# (# is <25%)				# (# is <25%)	> 75%	< 25%	< 25%	> 7.00
O=C(O)C1CCN(Cc2cc(CN3CCCC34CCN(C(=O)OC(C(F)(F)F)C(F)(F)F)CC4)cc(OC(F)(F)F)c2)CC1 [Example 269]					## (## is equal to or greater than 25% but less than 75%)	# (# is <25%)				# (# is <25%)	> 75%	< 25%	< 25%	> 7.00
O=C(O)C1CCN(c2cc(C(F)(F)F)ccc2CN2CCCC23CCN(C(=O)OC(C(F)(F)F)C(F)(F)F)CC3)C1 (stereo not drawn) [Example 199]	> 75%	> 7.00	25 to 75%	< 6.00	## (## is equal to or greater than 25% but less than 75%)	# (# is <25%)	< 25%	< 6.00	> 7.00	# (# is <25%)				
O=C(OC(C(F)(F)F)C(F)(F)F)N1CCC2(CCCN2Cc2ccc(C(F)(F)F)cc2N2CCN(CCF)CC2)CC1 [Example 20, 1,1,1,3,3,3-Hexafluoropropan-2-yl 1-(2-(4-(2-fluoroethyl)piperazin-1-yl)-4-(trifluoromethyl)benzyl)-1,8-diazaspiro[4.5]decane-8-carboxylate]		> 7.00		< 6.00	## (## is equal to or greater than 25% but less than 75%)	# (# is <25%)		< 6.00	> 7.00	# (# is <25%)				
O=C(O)[C@H]1CCCCN1c1cc(CN2CCCC23CCN(C(=O)OC(C(F)(F)F)C(F)(F)F)CC3)cc(C(F)(F)F)c1 [Example 274]					### (### is ≥75%)	# (# is <25%)				# (# is <25%)	> 75%	25 to 75%	< 25%	> 7.00
O=C(OC(C(F)(F)F)C(F)(F)F)N1CCC2(CCCN2Cc2ccc(C(F)(F)F)c(N3CCOCC3)c2)CC1 [Example 133, 1,1,1,3,3,3-Hexafluoropropan-2-yl 1-(3-morpholino-4-(trifluoromethyl)benzyl)-1,8-diazaspiro[4.5]decane-8-carboxylate]	> 75%	> 7.00	< 25%	< 6.00	### (### is ≥75%)	# (# is <25%)	< 25%	< 6.00	> 7.00	# (# is <25%)				
O=C(O)C1CCN(c2cc(C(F)(F)F)ccc2CN2CCC3(CCN(C(=O)OC(C(F)(F)F)C(F)(F)F)CC3)C2)CC1 [Example 119, 1-(2-((8-(((1,1,1,3,3,3-Hexafluoropropan-2-yl)oxy)carbonyl)-2,8-diazaspiro[4.5]decan-2-yl)methyl)-5-(trifluoromethyl)phenyl)piperidine-4-carboxylic acid]	> 75%	> 7.00	≥ 75%	6.00 to 7.00	### (### is ≥75%)	# (# is <25%)	< 25%	< 6.00	> 7.00	### (### is ≥75%)				
